The values that follow come from ChEMBL document CHEMBL1140259, “Isomeric thiazole derivatives as ligands for the neuropeptide Y5 receptor” (Bioorg Med Chem Lett, 2005).

The first assay concerns the target T1, Neuropeptide Y receptor type 5 (Mus musculus) (UniProt O70342).
T1 sequence (whole entry): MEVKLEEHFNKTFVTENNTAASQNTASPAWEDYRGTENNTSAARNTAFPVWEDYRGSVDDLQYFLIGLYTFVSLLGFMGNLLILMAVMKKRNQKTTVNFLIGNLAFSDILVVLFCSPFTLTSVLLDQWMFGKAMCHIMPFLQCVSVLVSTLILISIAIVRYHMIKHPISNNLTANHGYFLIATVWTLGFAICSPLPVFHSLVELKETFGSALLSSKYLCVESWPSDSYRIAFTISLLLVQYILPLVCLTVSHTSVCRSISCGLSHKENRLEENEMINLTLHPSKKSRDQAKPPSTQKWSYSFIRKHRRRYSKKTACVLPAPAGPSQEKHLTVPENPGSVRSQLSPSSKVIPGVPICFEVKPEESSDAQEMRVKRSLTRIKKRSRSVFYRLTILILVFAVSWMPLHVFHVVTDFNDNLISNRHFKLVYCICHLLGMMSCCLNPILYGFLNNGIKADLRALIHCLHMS
Briefly: Percent inhibition against mouse NPY5 receptor at 1 um.
Consider `COc1cccc(S(=O)(=O)NCCCNc2nc(C(=O)c3ccccc3C)cs2)c1`, for which the inhibition (as a rule, the share of the control response that was lost under treatment) was 12%.

As to `Cc1ccccc1C(=O)c1csc(NCCCNS(=O)(=O)c2ccc(F)cc2)n1`, the inhibition is 16%.

Another assay concerns the target T2, Neuropeptide Y receptor type 5 (Mus musculus, UniProt O70342).
T2 sequence (O70342 whole entry): T1 sequence (whole entry)
Nature of the assay: Inhibitory concentration against mouse NPY5 receptor […].
In the case of `COc1cccc(S(=O)(=O)NCCCNc2ncc(C(=O)c3ccccc3C)s2)c1`, half-maximal inhibition (IC50) required 11 nM.

As for `Cc1ccccc1C(=O)c1csc(NCCCNS(=O)(=O)c2cccc(F)c2)n1`, half-maximal inhibition (IC50) was put at 64 nM.

Take `COc1ccc(OC)c(S(=O)(=O)NCCCNc2nc(C(=O)c3ccccc3C)cs2)c1`: half-maximal inhibition (IC50) was put at 17 nM.

In the case of `Cc1ccccc1C(=O)c1cnc(NCCCNS(=O)(=O)c2cccs2)s1`, the IC50 (usually the point on the concentration scale where inhibition reaches its midpoint) is 1 nM.

Take `COc1ccc(OC)c(S(=O)(=O)NCCCNc2ncc(C(=O)c3ccccc3C)s2)c1`: the half-inhibitory concentration (IC50) stood at 1.6 nM.

Compound `Cc1ccccc1C(=O)c1cnc(NCCCNS(=O)(=O)c2ccc(F)cc2)s1` showed an IC50 of 9900 nM.

On to `Cc1ccccc1C(=O)c1csc(NCCCNS(=O)(=O)c2cc(C(F)(F)F)ccc2Cl)n1`, for which the IC50 was found to be 9 nM.

Compound `Cc1ccccc1C(=O)c1cnc(NCCCNS(=O)(=O)c2cccc(F)c2)s1` displayed an IC50 of 5.5 nM.

In turn, `Cc1ccccc1C(=O)c1cnc(NCCCNS(=O)(=O)c2cc(C(F)(F)F)ccc2Cl)s1` gave an IC50 of 0.85 nM.

Regarding `COc1ccc(C)cc1S(=O)(=O)NCCCNc1ncc(C(=O)c2ccccc2C)s1`, half-maximal inhibition (IC50) was put at 0.71 nM.

Turning to `Cc1ccccc1C(=O)c1csc(NCCCNS(=O)(=O)c2cccs2)n1`, 11 nM corresponded to half-maximal inhibition (IC50).
